The results in this text go back to ChEMBL document CHEMBL1201862, “PubChem BioAssay data set” (2004).

SMILES strings stand for the structures.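 Each compound was tested at five concentrations against cells in 96-well plates for 48 hours. GI50 = concentration required for 50% inhibition of growth.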 Calls of active or inactive are those of the source. Rule as the data show it: active = GI50 up to about 1.1 µM and inactive = higher.

Test systems include A498; COLO 205; DLD-1; HCT-15; HL-60; HOP-92; HT-29; NCI-H226; NCI-H460; OVCAR-3; OVCAR-4; SF-268; SK-MEL-5; SK-OV-3; SR; SW-620; TK-10; U-251.
Holding throughout (assay): growth of human tumour cells (NCI), 48 h

For the compound `COc1cc(OC(=O)c2c(O)cc(O)c(O)c2C)cc(C)c1C(=O)Oc1cc(C)c(C(=O)O)c(O)c1`, the GI50 in the test on A498 was > 100 µM (inactive); with COLO 205, > 100 µM (inactive); in the test with DLD-1, > 100 µM (inactive); in the test on HCT-15 it was over 100 µM; in the test on HL-60 it was > 100 µM (inactive); with HOP-92, > 100 µM (inactive). Also, the GI50 with HT-29, in the test with NCI-H226, with NCI-H460, in the test with OVCAR-3, in the test with OVCAR-4 and with SF-268 was > 100 µM (inactive) in each case. Besides, the GI50 in the test on SK-MEL-5, in the test on SK-OV-3, with SR, with SW-620, with TK-10 and in the test on U-251 was > 100 µM (inactive) throughout.

`C[C@]12CCCC(=O)C1(O)C[C@H](C(=O)O)CC2` (some centres undefined): the GI50 is > 100 µM (inactive) with A498; > 100 µM (inactive) with COLO 205; > 100 µM (inactive) in the test with DLD-1; over 100 µM with HCT-15; > 100 µM (inactive) with HL-60; > 100 µM (inactive) in the test on HOP-92. For the same compound, the GI50 in the test with HT-29, in the test with NCI-H226, with NCI-H460, in the test on OVCAR-3, with OVCAR-4 and with SF-268 was > 100 µM (inactive) throughout. The GI50 in the test with SK-MEL-5, with SK-OV-3, with SR, with SW-620, with TK-10 and with U-251 was > 100 µM (inactive) throughout.

Turning to `COc1cc(C2Oc3cc(-c4oc5cc(O)cc(O)c5c(=O)c4O)ccc3OC2CO)ccc1O` (centres undefined) [DEHYDROSILYLBIN], the GI50 in the test with A498 was 9.27 µM (inactive); in the test on COLO 205, 26.7 µM (inactive); in the test on DLD-1 it was 14.5 µM (inactive); in the test on HCT-15 it was 9.31 µM; in the test with HL-60, 9.48 µM (inactive); in the test on HOP-92 it was 10.5 µM (inactive). Further, the GI50 with HT-29 was 25.9 µM (inactive); in the test with NCI-H226 it was 8.51 µM (inactive); with NCI-H460, 3.72 µM (inactive); with OVCAR-3, 21.5 µM (inactive); in the test on OVCAR-4, 20.7 µM (inactive); in the test on SF-268 it was 7.46 µM (inactive). The GI50 with SK-MEL-5 was 15.4 µM (inactive); with SK-OV-3 it was 21.4 µM (inactive); with SR, 4.61 µM (inactive); in the test on SW-620 it was 8.55 µM (inactive); with TK-10 it was 10.9 µM (inactive); with U-251, 6.68 µM (inactive).

As for `OCCC1(O)CCC(O)CC1` (centres undefined), the GI50 with A498 is > 100 µM (inactive); in the test with COLO 205 it was > 100 µM (inactive); with DLD-1, > 100 µM (inactive); in the test with HCT-15, over 100 µM; with HL-60, > 100 µM (inactive); with HOP-92, > 100 µM (inactive). Besides, the GI50 in the test on HT-29, in the test with NCI-H226, in the test on NCI-H460, in the test with OVCAR-3, with OVCAR-4 and in the test with SF-268 was > 100 µM (inactive) throughout. Further, the GI50 in the test on SK-MEL-5, with SK-OV-3, in the test on SR, in the test with SW-620, in the test on TK-10 and with U-251 was > 100 µM (inactive) each time.

As for `O=C1CNS(=O)(=O)N1`, the GI50 in the test on A498, with COLO 205, with DLD-1, in the test on HL-60, in the test on HOP-92 and in the test on HT-29 was > 100 µM (inactive) each time. Besides, the GI50 with NCI-H226 is 14.5 µM (inactive); in the test with OVCAR-3, > 100 µM (inactive); in the test with OVCAR-4, > 100 µM (inactive); in the test with SF-268, > 100 µM (inactive); in the test on SK-OV-3, > 100 µM (inactive); in the test on SR it was > 100 µM (inactive). Also, the GI50 in the test with SW-620 and in the test with TK-10 was > 100 µM (inactive) throughout.

Regarding `O=C1C(O)=C(CCCc2ccc(Oc3ccccc3)cc2)C(=O)c2ccccc21`, the GI50 with A498 was 10.3 µM (inactive); in the test with COLO 205, 17.7 µM (inactive); with DLD-1 it was 10.4 µM (inactive); in the test on HCT-15, 4.28 µM; in the test with HL-60 it was 7.94 µM (inactive); with HOP-92, 12.9 µM (inactive). Also, the GI50 in the test on HT-29 is 30.9 µM (inactive); in the test on NCI-H226, 10.8 µM (inactive); in the test with NCI-H460, 10.4 µM (inactive); with OVCAR-3, 6.53 µM (inactive); in the test with OVCAR-4, 19.4 µM (inactive); in the test on SF-268, 7.64 µM (inactive). The GI50 with SK-MEL-5 is 3.38 µM (inactive); in the test on SK-OV-3, 51.4 µM (inactive); in the test with SR it was 15.2 µM (inactive); in the test with SW-620, 8.63 µM (inactive); in the test with TK-10 it was 18.4 µM (inactive); in the test with U-251 it was 5.64 µM (inactive).

Consider `Cc1cccc(C)c1NC(=O)C(C#N)C1=C(Cl)C(=O)c2ccccc2C1=O` (centres undefined), for which the GI50 is 14.8 µM (inactive) in the test with A498; 6.35 µM (inactive) in the test on COLO 205; 8.15 µM (inactive) in the test with DLD-1; 19.1 µM in the test on HCT-15; 5.53 µM (inactive) in the test with HL-60; 10.2 µM (inactive) in the test on HOP-92. Further, the GI50 in the test with HT-29 is 18.6 µM (inactive); in the test with NCI-H226, 12.1 µM (inactive); in the test with NCI-H460 it was 22.1 µM (inactive); in the test with OVCAR-3 it was 11.3 µM (inactive); with OVCAR-4, 16 µM (inactive); in the test with SF-268, 15.5 µM (inactive). Further, the GI50 was 13 µM (inactive) in the test on SK-MEL-5; 20.9 µM (inactive) in the test with SK-OV-3; 2.31 µM (inactive) in the test on SR; 11.9 µM (inactive) with SW-620; 19.5 µM (inactive) with TK-10; 18.1 µM (inactive) in the test with U-251.

For the compound `COc1cc2cc3c4c(cc(OC)c(OC)c4c2cc1OC)CCN3C(=O)N(C)C`, the GI50 was 97.3 µM (inactive) in the test with A498; > 100 µM (inactive) in the test with COLO 205; > 100 µM (inactive) with DLD-1; over 100 µM with HCT-15; > 100 µM (inactive) with HL-60; 91 µM (inactive) in the test on HOP-92. Moreover, the GI50 in the test with HT-29 was 83.4 µM (inactive); in the test with NCI-H226 it was 56.2 µM (inactive); in the test with NCI-H460, 87.7 µM (inactive); in the test with OVCAR-3, > 100 µM (inactive); in the test on OVCAR-4 it was 89.5 µM (inactive); in the test with SF-268, > 100 µM (inactive). Besides, the GI50 in the test with SK-MEL-5 is > 100 µM (inactive); in the test with SK-OV-3, > 100 µM (inactive); in the test with SR, > 100 µM (inactive); in the test on SW-620 it was > 100 µM (inactive); in the test with TK-10, > 10 µM (inactive); with U-251, > 100 µM (inactive).

Consider `O=C(CC(=O)c1ccccc1)C(=O)Nc1ccc(Cl)cc1`, for which the GI50 in the test with A498 was > 100 µM (inactive); in the test with COLO 205, > 46.2 µM (inactive); in the test on DLD-1 it was > 58.9 µM (inactive); with HCT-15 it was over 42.9 µM; in the test on HL-60 it was > 100 µM (inactive); with HOP-92 it was > 100 µM (inactive). Further, the GI50 in the test with HT-29 is > 42.8 µM (inactive); with NCI-H226 it was > 100 µM (inactive); in the test on NCI-H460, > 39.5 µM (inactive); in the test on OVCAR-3, > 100 µM (inactive); in the test on OVCAR-4 it was > 100 µM (inactive); in the test on SF-268, > 100 µM (inactive). In addition, the GI50 in the test on SK-MEL-5 was > 100 µM (inactive); with SK-OV-3 it was > 100 µM (inactive); with SR, > 100 µM (inactive); with SW-620 it was > 42.8 µM (inactive); in the test on TK-10 it was > 100 µM (inactive); in the test on U-251, > 100 µM (inactive).

In the case of `COc1ccccc1NC(=O)C1=C(C)NC(C)=C(C(=O)Nc2ccccc2OC)C1/C=C/c1ccccc1`, the GI50 was > 100 µM (inactive) with A498; > 100 µM (inactive) in the test on COLO 205; > 100 µM (inactive) in the test on DLD-1; over 100 µM with HCT-15; 60.1 µM (inactive) in the test on HL-60; > 100 µM (inactive) in the test on HOP-92. The GI50 with HT-29 is > 100 µM (inactive); with NCI-H226, > 100 µM (inactive); in the test with NCI-H460 it was > 100 µM (inactive); with OVCAR-3, > 100 µM (inactive); with OVCAR-4 it was 20.1 µM (inactive); with SF-268, 92.9 µM (inactive). The GI50 was > 100 µM (inactive) in the test on SK-MEL-5; > 100 µM (inactive) in the test with SK-OV-3; 51.8 µM (inactive) with SR; > 100 µM (inactive) with SW-620; > 100 µM (inactive) with TK-10; > 100 µM (inactive) in the test with U-251.

Turning to `OC1(c2ccccc2)OC(C#Cc2ccccc2)(c2ccccc2)c2ccccc21` (centres undefined), the GI50 is 2.82 µM (inactive) with A498; 2.31 µM (inactive) with COLO 205; 3.06 µM (inactive) with DLD-1; 3.44 µM in the test with HCT-15; 2.58 µM (inactive) in the test on HL-60; 4 µM (inactive) in the test with HOP-92. Besides, the GI50 is 2.02 µM (inactive) in the test on HT-29; 2.62 µM (inactive) with NCI-H226; 4.47 µM (inactive) in the test with NCI-H460; 2.31 µM (inactive) in the test with OVCAR-3; 2.82 µM (inactive) in the test with OVCAR-4; 4.18 µM (inactive) in the test with SF-268. Besides, the GI50 in the test on SK-MEL-5 was 7.89 µM (inactive); in the test with SK-OV-3 it was 1.46 µM (inactive); in the test with SR, 2.5 µM (inactive); in the test with SW-620 it was 4.12 µM (inactive); in the test with TK-10, 13.3 µM (inactive); with U-251, 4.12 µM (inactive).
